# Results: patent US11186589B2, “Cyanoindoline derivatives as NIK inhibitors” (Janssen Pharmaceutica NV, priority 2016, dated 2021)
# Like-named read-outs stand apart in the source and are kept apart here.
# Columns and labels:
# NIK/MAP3K14 = NIK/MAP3K14 (Homo sapiens (Human), UniProt Q99558); assay: Inhibition of auto-phosphorylation of recombinant human NF-kappaB-inducing kinase (NIK/MAP3K14) activity (AlphaScreen); format: biochemical; details: averaged values over all measurements on all batches, 25 microM ATP
# Procedure: Inhibition of Auto-Phosphorylation of Recombinant Human NF-kappaB-Inducing Kinase ([…]) Activity (AlphaScreen®)
# NIK/MAP3K14 auto-phosphorylation activity was measured using the AlphaScreen® (αscreen) format (Perkin Elmer). All compounds tested were dissolved in dimethyl sulfoxide (DMSO) and further dilutions were made in assay buffer. Final DMSO concentration was […] in assays. Assay buffer was 50 mM Tris pH 7.5 containing 1 mM EGTA (ethylene glycol tetraacetic acid), 1 mM DTT (dithiothreitol), 0.1 mM Na3VO4, 5 mM MgCl2, 0.01% Tween® 20. Assays were carried out in 384 well Alphaplates (Perkin Elmer). Incubations consisted of compound, 25 microM Adenosine-5′-triphosphate (ATP), and 0.2 nM NIK/MAP3K14. Incubations were initiated by addition of GST-tagged NIK/MAP3K14 enzyme, carried out for 1 h at 25° C. and terminated by addition of stop buffer containing anti-phospho-[…] Ser176/180 antibody. Protein A Acceptor and Glutathione-Donor beads were added before reading using an EnVision® Multilabel Plate Reader (Perkin Elmer). Signal obtained in the wells containing blank samples was subtracted from all other wells and IC50's were determined by fitting a sigmoidal curve to % inhibition of control versus Log10 compound concentration.
# JJN-3 cells = assay: Antiproliferative activity on JJN-3 (NIK translocated) multiple myeloma cells (CellTiter-Glo); format: cell-based, human; details: JJN-3 (NIK translocated) cells, 96 hr treatment, averaged values, read-out: JJN-3 Proliferation inhibition (IC50 (nM))
# Procedure: (§1) Determination of Antiproliferative Activity on JJN-3 (NIK Translocated) and KMS12-BM (NIK WT) Multiple Myeloma Cells
# (§2) All compounds tested were dissolved in DMSO and further dilutions were made in culture medium. Final DMSO concentration was 0.3% (v/v) in cell proliferation assays. Viability was assessed using CellTiter-Glo cell viability assay kit (Promega). The human JJN-3 and KMS12-BM cells (DSMZ) were cultured in RPMI 1640 medium supplemented with 2 mM L-glutamine, and 10% fetal calf serum (PAA). Cells were routinely kept as suspension cells at 37° C. in a humidified 5% CO2 atmosphere. Cells were passaged at a seeding density of 0.2×10^6/ml twice a week. Cells were seeded in black tissue culture treated 96-well plates (Perkin Elmer). Densities used for plating ranged from 15000 (JJN3) to 20000 (KMS12BM) cells per well in a total volume of […]. Drugs and/or solvents were added (15 μl) to a final volume of 150 μl. Following 96 hr of treatment, plates were removed from the incubator and allowed to equilibrate to room temperature for approx 10 min. 75 μl CellTiter-Glo reagent was added to each well that was then covered (Perkin Elmer Topseal) and shaken on plate shaker for 10 min. Luminescence was measured on a HTS Topcount (Perkin Elmer). Within an experiment, the results for each treatment were the mean of 2 replicate wells. For initial screening purposes, compounds were tested using a 9 point dilution curve (serial 1:3 dilutions). For each experiment, controls (containing no drug) and a blank incubation (containing cells read at the time of compound addition) were run in parallel. The blank value was subtracted from all control and sample values. For each sample, the mean value for cell growth (in relative light units) was expressed as a percentage of the mean value for cell growth of the control.
# KMS12-BM cells = assay: Antiproliferative activity on KMS12-BM (NIK WT) multiple myeloma cells (CellTiter-Glo); format: cell-based, human; details: 96 hr treatment, averaged values, read-out: KMS-12 Proliferation inhibition (IC50 (nM))
# Procedure: as §1, §2
# Chain of NIK/MAP3K14 (Q99558 whole entry): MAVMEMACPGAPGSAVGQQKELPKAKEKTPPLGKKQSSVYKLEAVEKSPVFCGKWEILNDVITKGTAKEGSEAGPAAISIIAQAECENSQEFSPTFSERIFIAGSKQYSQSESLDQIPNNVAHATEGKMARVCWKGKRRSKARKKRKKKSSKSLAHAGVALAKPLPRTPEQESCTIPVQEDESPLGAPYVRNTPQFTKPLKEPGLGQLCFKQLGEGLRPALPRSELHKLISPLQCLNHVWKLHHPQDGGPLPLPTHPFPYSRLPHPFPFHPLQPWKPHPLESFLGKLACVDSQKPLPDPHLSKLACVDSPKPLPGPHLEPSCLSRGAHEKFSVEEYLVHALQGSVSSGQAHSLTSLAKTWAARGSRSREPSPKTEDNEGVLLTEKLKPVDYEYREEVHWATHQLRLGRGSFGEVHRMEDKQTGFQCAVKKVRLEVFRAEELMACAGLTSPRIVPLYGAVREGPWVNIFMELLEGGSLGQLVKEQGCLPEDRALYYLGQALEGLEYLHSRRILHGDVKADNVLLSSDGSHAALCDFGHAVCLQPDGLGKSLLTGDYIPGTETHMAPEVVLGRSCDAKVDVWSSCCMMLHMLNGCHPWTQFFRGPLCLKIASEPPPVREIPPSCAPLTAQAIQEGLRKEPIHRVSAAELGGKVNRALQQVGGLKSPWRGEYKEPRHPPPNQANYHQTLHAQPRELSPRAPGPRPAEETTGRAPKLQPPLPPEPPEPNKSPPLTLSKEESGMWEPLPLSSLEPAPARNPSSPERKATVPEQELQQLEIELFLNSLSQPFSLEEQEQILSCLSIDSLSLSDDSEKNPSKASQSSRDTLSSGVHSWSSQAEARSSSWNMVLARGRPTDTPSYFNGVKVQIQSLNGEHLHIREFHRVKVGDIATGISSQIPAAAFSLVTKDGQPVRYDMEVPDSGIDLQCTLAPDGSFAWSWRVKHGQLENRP
SMILES,IC50 (NIK/MAP3K14) [nM],"IC50 (JJN-3 cells; Homo sapiens, JJN-3, 96 h) [nM]","IC50 (KMS12-BM cells; Homo sapiens, KMS-12-BM, 96 h) [nM]",IC50 (JJN-3 cells) [nM],IC50 (KMS12-BM cells) [nM]
"CC1(CO)CNc2c(C#N)cc(-c3ccnc(Nc4ccc5c(c4)CC(CO)OC5)n3)cc21 (single isomer, unassigned) [Compound 5]",1.9,21,151,–,–
"CC1(CO)CNc2c(C#N)cc(-c3ccnc(Nc4ccc5c(c4)CC(CO)OC5)n3)cc21 (single isomer, unassigned) [Compound 8]",2,–,–,41,162
CC1(CO)CNc2c(C#N)cc(-c3ccnc(Nc4ccc5c(c4)CCCO5)n3)cc21 (stereo not shown) [Compound 1],5.9,96,550,–,–
CC1(C)CNc2c(C#N)cc(-c3ccnc(Nc4cccc5c4CNC5)n3)cc21 [Compound 2],4.3,112,~177,–,–
CN1CCc2ccc(Nc3nccc(-c4cc(C#N)c5c(c4)C(C)(CO)CN5)n3)cc2CC1 (stereo not shown) [Compound 3],1.4,~24,85,–,–
CC1(CO)CNc2c(C#N)cc(-c3ccnc(Nc4cc(Cl)cc5c4OCCC5)n3)cc21 (stereo not shown) [Compound 4],26.9,107,> 10000,–,–
Cn1nc2c(c1Nc1nccc(-c3cc(C#N)c4c(c3)C(C)(CO)CN4)n1)CCC2 (stereo not shown) [Compound 4b],8.5,1900,~6460,–,–
CC1(CO)CNc2c(C#N)cc(-c3ccnc(Nc4cc(Cl)cc5c4ccn5CCN4CCOCC4)n3)cc21 (stereo not shown) [Compound 4c],9.6,9,~1020,–,–
Cn1nc(Nc2nccc(-c3cc(C#N)c4c(c3)C(C)(CO)CN4)n2)c2c1CCC2 (stereo not shown) [Compound 5b],20.4,468,> 10000,–,–
CC1(CO)CNc2c(C#N)cc(-c3ccnc(Nc4cc(Cl)cc5c4ccn5CCCN4CCOCC4)n3)cc21 (stereo not shown) [Compound 5c],12,23,~692,–,–
CC1(C)CNc2c(C#N)cc(-c3ccnc(Nc4cccc5c4CNCC5)n3)cc21 [Compound 6],12.6,263,794,–,–
CC1OCCn2nc(Nc3nccc(-c4cc(C#N)c5c(c4)C(C)(CO)CN5)n3)cc21 (stereo not shown) [Compound 6b],5.9,398,~851,–,–
COCCCn1ccc2c(Nc3nccc(-c4cc(C#N)c5c(c4)C(C)(CO)CN5)n3)cc(Cl)cc21 (stereo not shown) [Compound 6c],34.8,10,1620,–,–
CC1(CO)CNc2c(C#N)cc(-c3ccnc(Nc4ccc5c(c4)C(F)(F)CCO5)n3)cc21 (stereo not shown) [Compound 7],5.9,48,525,–,–
CC(=O)N1CCc2c(C)c(Nc3nccc(-c4cc(C#N)c5c(c4)C(C)(CO)CN5)n3)cc(Cl)c21 (stereo not shown) [Compound 9],2,25,~2750,–,–
CC1(CO)CNc2c(C#N)cc(-c3ccnc(Nc4cc(Cl)cc5c4CCN5)n3)cc21 (stereo not shown) [Compound 10],4.9,42,~5750,–,–
CN(C)C(=O)C1COc2c(cc(Cl)cc2Nc2nccc(-c3cc(C#N)c4c(c3)[C@@](C)(CO)CN4)n2)C1 (stereo partly shown) [Compound 11],9.1,36,–,–,1180
CN(C)C(=O)C1COc2c(cc(Cl)cc2Nc2nccc(-c3cc(C#N)c4c(c3)[C@@](C)(CO)CN4)n2)C1 (stereo partly shown) [Compound 12],14.1,–,–,22,~6610
CN(C)CC(=O)N1CCc2c(Nc3nccc(-c4cc(C#N)c5c(c4)[C@@](C)(CO)CN5)n3)cc(Cl)cc21 [Compound 13],1.3,18,~3550,–,–
CNC(=O)CN1CCc2c(Nc3nccc(-c4cc(C#N)c5c(c4)C(C)(CO)CN5)n3)cc(Cl)cc21 (stereo not shown) [Compound 14],3,54,251,–,–
Cc1c(Nc2nccc(-c3cc(C#N)c4c(c3)[C@@](C)(CO)CN4)n2)ccc2c1CCN2C(=O)CN(C)C [Compound 15],2.5,89,96,–,–
Cc1c(Nc2nccc(-c3cc(C#N)c4c(c3)[C@@](C)(CO)CN4)n2)cc(Cl)c2c1CCN2C(=O)CN(C)C [Compound 16],1.6,26,~339,–,–
CN(C)C1COc2c(cc(Cl)cc2Nc2nccc(-c3cc(C#N)c4c(c3)[C@@](C)(CO)CN4)n2)C1 (stereo partly shown) [Compound 17],3.3,–,–,5,182
CN(C)C(=O)C(=O)N1CCc2c(Nc3nccc(-c4cc(C#N)c5c(c4)[C@@](C)(CO)CN5)n3)cc(Cl)cc21 [Compound 19],5,6,~692,–,–
COCCCc1cc2c(cc1Nc1nccc(-c3cc(C#N)c4c(c3)[C@@](C)(CO)CN4)n1)CCN(C)CC2 [Compound 20],20.4,372,1480,–,–
CC1(CO)CNc2c(C#N)cc(-c3ccnc(Nc4cnc5c(c4)COCC5)n3)cc21 (stereo not shown) [Compound 45],2.7,~60,~186,–,–
CN1CCc2[nH]c(=O)c(Nc3nccc(-c4cc(C#N)c5c(c4)C(C)(CC(F)F)CN5)n3)cc2C1 (stereo not shown) [Compound 57],17.4,11200,> 10000,–,–

# Continued, values first:
IC50 (NIK/MAP3K14) [nM],"IC50 (JJN-3 cells; Homo sapiens, JJN-3, 96 h) [nM]","IC50 (KMS12-BM cells; Homo sapiens, KMS-12-BM, 96 h) [nM]",IC50 (JJN-3 cells) [nM],IC50 (KMS12-BM cells) [nM],SMILES
11.8,1700,6310,–,–,CC1(CO)CNc2c(C#N)cc(-c3ccnc(Nc4cc5n(n4)CCOC5)n3)cc21 (stereo not shown) [Compound 7b]
4,1150,6170,–,–,CN1Cc2cc(Nc3nccc(-c4cc(C#N)c5c(c4)C(C)(CO)CN5)n3)nn2CC1=O (stereo not shown) [Compound 8b]
38,85,> 10000,–,–,CC1(C)CNc2c(C#N)cc(-c3ccnc(Nc4cc(F)cc5[nH]ccc45)n3)cc21 [Compound 8c]
6.8,204,1660,–,–,CN1CCn2nc(Nc3nccc(-c4cc(C#N)c5c(c4)C(C)(CO)CN5)n3)cc2C1 (stereo not shown) [Compound 9b]
10.5,1180,5620,–,–,Cc1c(Nc2nccc(-c3cc(C#N)c4c(c3)C(C)(CO)CN4)n2)cc(Cl)c2[nH]ccc12 (stereo not shown) [Compound 9c]
9.6,1020,2400,–,–,CC1(C)Cn2nc(Nc3nccc(-c4cc(C#N)c5c(c4)C(C)(CO)CN5)n3)cc2CO1 (stereo not shown) [Compound 10b]
4.3,63,> 10000,–,–,COc1nc2c(ccn2CC(=O)N(C)C)cc1Nc1nccc(-c2cc(C#N)c3c(c2)[C@@](C)(CO)CN3)n1 [Compound 10c]
39.8,1580,~1820,–,–,COCCn1nc2c(c1Nc1nccc(-c3cc(C#N)c4c(c3)[C@@](C)(CO)CN4)n1)CCC2 [Compound 11b]
4.3,16,427,–,–,CNC(=O)CCn1ccc2c(Nc3nccc(-c4cc(C#N)c5c(c4)C(C)(CO)CN5)n3)cc(Cl)cc21 (stereo not shown) [Compound 11c]
5.6,63,> 10000,–,–,COCCn1ccc2cc(Nc3nccc(-c4cc(C#N)c5c(c4)[C@@](C)(CO)CN5)n3)c(OC)nc21 [Compound 14c]
363,–,–,–,–,CC(C)c1c(Nc2nccc(-c3cc(C#N)c4c(c3)[C@@](C)(CO)CN4)n2)nn2c1CN(C)CC2 [Compound 16b]
